Reference: US12168003B2, “Selective inhibition of T follicular helper cells for treatment of autoimmune disorders” (priority 2019, dated 2024)

Experiments:
TFH cells = assay: OVA/Alum immunization with 4EGI-1 throughout the response; format: in vivo, mouse
Method: Single cell suspensions were stained with a viability marker diluted 1:1000 in PBS for 10 minutes, washed in PBS, and stained with antibodies to specific cell surface markers. Viability dye, antibody clones, and dilutions used to identify these populations are detailed in Table 2. Identification of cellular subsets in mice is detailed in FIGS. 1A-1N, 3A-3C, and 6A-6C). In brief, the following gating strategy was used to identify mouse TFH cells (CD4^+ PD1^+ CXCR5^+), TFR cells (CD4^+ PD1^+ CXCR5^+ Foxp3^+), IL-21^+ CD4^+ T cells (CD4^+ VFP^3+), IL-4^+ CD4^+ T cells (CD4^+ GFP^+) OT2 T cells (CD4^+ CD45.2^+ Vβ5^+), OT2 TFH cells (CD4^+ CD45.2^+ Vβ5^+ PD1^+ CXCR5^+), 2D2 T cells (CD4^+ CD45.2^+ Vα3.2^+), TFH-like 2D2 T cells (CD4^+ CD45.2^+ […]), plasma cells (B220^− CD138^+), plasmablasts (B220^mid CD138^+), GC B cells (B220^+ GL7^+ Fas^+), Light zone GC B cells (B220^+ GL7^+ Fas^+ CD86^+), dark zone GC B cells (B220^+ GL7^+ Fas^+ CXCR4^+), IgG1 switched GC B cells (B220^+ GL7^+ Fas^+ IgG1^+), OVA-specific GC B cells (B220^+ GL7^+ Fas^+ OVA-647^+), skin neutrophils (Ly6G^+ CD11b^+), lung eosinophils (SiglecF^+CD11c^−), brain and SC CD4^+ T cells (CD45^+ CD4^+). CD4^+ T cell expression of surface ICOS, PD-1, CXCR5, CD28, SLAM, OX-40 and intranuclear BCL6 was also determined. All flow cytometry procedures were performed on a ZE5 Cell Analyzed (Bio-Rad) and analyzed using FlowJo software (TreeStar).
OVA protein (Sigma A5503) was diluted in PBS and then in 20 mg/mL Imject Alum (ThermoFisher 77161) and mixed at room temperature for 30 minutes prior to i.p. injection of 100 μg OVA in 200 μL. When stated, mice were treated i.p. daily from day 0 to 6 or day 0 to 13 (just for TFR analysis) following OVA/Alum immunization with 25 mg/kg 4EGI-1 (MedChemExpress) or from day 7 to 13 following OVA/Alum immunization with 50 mg/kg or 75 mg/kg 4EGI-1. Vehicle control mice were administered 6 μL DMSO in 194 μL PBS i.p.
Spleens from OVA/Alum immunized mice treated with vehicle or 4EGI-1 were harvested, embedded in OCT, and frozen immediately on dry ice. Five-micron thick cryosections were cut and fixed in acetone for 10 min. Slides were blocked with 1% BSA and stained with anti-CD4 conjugated to Alexa Fluor 647 and anti-B220 Alexa Fluor 555. Antibody clones are detailed in Table 2. Following 3 washes with PBS, slides were mounted with DAPI fluoromount (VECTASHIELD) and sealed with clear nail polish. Staining was visualized and tiled using a Zeiss 700 laser scanning inverted confocal microscope.
B cell (Alexa fluor 555) and CD4^+ T cell (Alexa fluor 647) channels were split using FIJI, and B cell zones were manually outlined. This outline was overlaid upon the CD4^+ T cell stain and intensity of CD4^+ T cell staining within these zones was measured using FIJI and normalized to a fixed area of 500 microns
PVDF-coated 96-well plates (Millipore) were activated with methanol for 2 minutes, washed with PBS, and coated with 4 μg/mL OVA overnight at 4° C. Plates were blocked with 1% BSA for 2 hours at 37° C. prior to incubation with 1×10^7 splenocytes in RPMI containing 2% Ultra-low IgG FCS, 55 μM 2ME, and 100 U/mL penicillin and 100 μg/mL streptomycin in the top well. Cells were diluted by 1/2 each row going down the plate and incubated immobile overnight at 37° C. Plates were washed with water+0.05% Tween 20 for 5 min prior to 3 washes in PBS+0.05% Tween-20 for 10 minutes. Plates were incubated with 1:1000 HRP-coupled goat anti-mouse IgG1 antibody (Southern Biotech) in PBS+0.05% Tween 20 for 2 h prior to 3 washes in PBS+0.05% Tween 20 and incubation in tetramethylbenzidine (TMB) ELISA substrate buffer (ThermoFisher). Plates were washed once in distilled deionized water and spots were manually enumerated and antibody-secreting cells (ASC) per million splenocytes was determined.
For quantification of OVA-specific IgG1, high-binding 96-well plates (Costar) were coated with 10 μg/mL OVA protein. […]

pre-existing TFH cells = settings: 75 mg/kg, mice (Sekiyama et al.); cited from earlier work
[1] = test system: eIF4E cap-dependent protein synthesis in the CD4+ T cell compartment; assay: SUnSET protein synthesis assay in CD4+ T cells of mice dosed with 4EGI-1; format: in vivo, mouse; settings: 25 mg/kg daily
Method: Determination of eIF4E activity in vivo should compare untreated to treated animals. Specimens may include single-cell suspensions of splenocytes isolated using Percoll gradient purification followed by plating in X-VIVO media (Lonza) containing 5% human AB serum (Sigma) and Glutamax at 37° C. for one hour and subjected to SuNSET assay for 10 minutes to determine active protein synthesis rates according to manufacturer instructions (AG Scientific) and shown in FIGS. 10A and 14B.
Mice were immunized with 100 μg OVA/Alum and 7 days following, spleens were harvested and single-cell suspensions were generated. Splenocytes were incubated in mouse T cell media (detailed in Silencing of eIF4E in OT2 T cells by lentivirus transduction) with 0-25 μM 4EGI-1 for 4 hours at 37° C. Cells were stained with a live/dead viability marker and then for extracellular expression of CD4, CXCR5, PD-1, or ICOS or intranuclear expression of BCL6. For the SuNSET assay, cells from above were incubated 37° C. with 10 μg/mL puromycin for 10 minutes. Control samples were incubated with puromycin and 100 μg/mL cycloheximide. Cells were incubated with a live/dead viability marker and extracellular stain prior to fixation and permeabilization (BD Biosciences Fixation/Permeabilization Solution) and intracellular staining with anti-puromycin followed by anti-mouse IgG2a antibody conjugated to Alexa Fluor 488.

[2] = cytokine reporter mice, OVA-Alum immunization

O=C(O)C(Cc1ccccc1[N+](=O)[O-])=NNc1nc(-c2ccc(Cl)c(Cl)c2)cs1 (mixture of isomers) [4EGI-1]
reduction of TFH cells in spleen (TFH cells; 25 mg/kg daily, OVA/Alum, day 7): 3.5 fold | overall CD4+ T cell numbers (TFH cells; 25 mg/kg daily, OVA/Alum, spleen, day 7): did not alter | CD4+ T cell activation (CD44high) (TFH cells; 25 mg/kg daily, OVA/alum): did not affect | CD4+ T cell division (TFH cells; 25 mg/kg daily, OVA/alum): did not affect | CD4+ T cell expression of CD28 (TFH cells; 25 mg/kg daily, OVA/alum): decreased by half | CD4+ T cell expression of OX40 (TFH cells; 25 mg/kg daily, OVA/alum): not affected | CD4+ T cell expression of SLAM (TFH cells; 25 mg/kg daily, OVA/alum): decreased by half | levels of expression of ICOS on CD4+ T cells (TFH cells; 25 mg/kg daily, OVA/alum): did not affect | reduction of expression of PD-1 on splenic CD4+ T cells (TFH cells; 25 mg/kg daily, OVA/alum): more than half | reduction of expression of intranuclear BCL6 in splenic CD4+ T cells (TFH cells; 25 mg/kg daily, OVA/alum): more than half | reduction of expression of surface CXCR5 on splenic CD4+ T cells (TFH cells; 25 mg/kg daily, OVA/alum): more than half | infiltration of CD4+ T cells in B cell zones (TFH cells; 25 mg/kg daily, OVA/alum, splenic sections): almost abolished | reduction of TFR cells (TFH cells; 4EGI-1 for 14 days, measured at day 14, OVA/Alum): 3 fold | serum OVA-specific IgG1 antibody (TFH cells; OVA/Alum, ELISA): reduced by half | OVA-specific IgG1 antibody secreting cells (ASCs) (TFH cells; OVA/Alum, ELISPOT, splenocytes): almost abolished | decrease of GC B cells in the CD86+ light zone (LZ) (TFH cells; OVA/Alum, spleen, day 7): 3 fold | decrease of GC B cells in the CXCR4+ dark zone (DZ) (TFH cells; OVA/Alum, spleen, day 7): 3 fold | decrease of GC B cells that are class switched IgG1+ (TFH cells; OVA/Alum, spleen, day 7): 3 fold | decrease of OVA-specific GC B cells (TFH cells; OVA/Alum, spleen, day 7): 3 fold | decrease of number of total GC B cells (TFH cells; OVA/Alum, spleen, day 7): 3 fold | reduction of number of total plasma cells (TFH cells; OVA/Alum, spleen, day 7): 2 fold | reduction of number of total plasmablasts (TFH cells; OVA/Alum, spleen, day 7): 2 fold | decrease of total number of CD4+ T cells producing IL-4 (GFP+) in the spleen (TFH cells; [2]): 2.5 fold | decrease of total number of CD4+ T cells producing IL-21 (VFP+) in the spleen (TFH cells; [2]): 2.5 fold | safety of the dose (pre-existing TFH cells): within its safety range | tolerability ([1]; mice): well tolerated | inhibition of eIF4E cap-dependent protein synthesis in the CD4+ T cell compartment ([1]; uninfected mice, SUnSET (FIG. 1A)): approximately 30%
